Like-named read-outs stand apart in the source and are kept apart here.
Molecular target: T1, TRPC5 (Homo sapiens, UniProt Q9UL62)
T1 construct: expressed in transfected cells; host or cells: HEK 293
T1 sequence (Q9UL62 1-973): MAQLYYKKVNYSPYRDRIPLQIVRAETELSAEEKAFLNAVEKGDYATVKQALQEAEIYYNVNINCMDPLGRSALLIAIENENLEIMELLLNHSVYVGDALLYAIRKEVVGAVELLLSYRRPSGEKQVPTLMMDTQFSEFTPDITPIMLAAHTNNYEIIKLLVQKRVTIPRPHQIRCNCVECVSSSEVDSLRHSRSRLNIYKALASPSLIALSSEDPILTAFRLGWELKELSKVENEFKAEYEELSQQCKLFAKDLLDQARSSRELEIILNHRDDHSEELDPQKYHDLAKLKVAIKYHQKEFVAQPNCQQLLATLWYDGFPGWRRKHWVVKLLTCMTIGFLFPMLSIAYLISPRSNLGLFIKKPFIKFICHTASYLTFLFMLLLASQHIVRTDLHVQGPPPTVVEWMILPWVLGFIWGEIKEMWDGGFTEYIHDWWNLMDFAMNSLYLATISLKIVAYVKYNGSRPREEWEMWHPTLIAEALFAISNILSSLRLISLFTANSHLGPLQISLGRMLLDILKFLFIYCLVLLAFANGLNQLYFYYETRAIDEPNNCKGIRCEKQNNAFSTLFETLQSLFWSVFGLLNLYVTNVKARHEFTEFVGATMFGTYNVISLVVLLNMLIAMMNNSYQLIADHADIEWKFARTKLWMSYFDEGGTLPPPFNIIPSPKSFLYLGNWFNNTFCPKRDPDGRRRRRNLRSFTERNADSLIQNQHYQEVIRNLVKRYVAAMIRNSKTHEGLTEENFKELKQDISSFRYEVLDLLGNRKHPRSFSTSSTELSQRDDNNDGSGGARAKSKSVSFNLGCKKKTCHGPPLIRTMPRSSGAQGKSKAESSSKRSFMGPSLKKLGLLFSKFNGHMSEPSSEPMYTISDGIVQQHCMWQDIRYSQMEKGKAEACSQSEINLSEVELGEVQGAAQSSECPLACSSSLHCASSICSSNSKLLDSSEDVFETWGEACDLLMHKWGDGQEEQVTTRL
Assay: TRPC5 automated patch clamp assay (Qpatch), current block after rosiglitazone stimulation
Assay type: cell-based
Protocol: HEK 293 cells expressing human TRPC5 were harvested, re-suspended in serum free medium, and added to the automated platform and used within 2-3 hours. Internal and external physiological solutions were freshly prepared prior to the assay. The external solution contained: 145 mM NaCl, 4 mM KCl, 2 mM CaCl2), 1 mM MgCl2, 10 mM HEPES, 10 mM glucose, pH 7.4 with NaOH and 300 mOsm/L. The internal solution contained 120 mM L-aspartic acid, 120 mM CsOH·H2O, 20 mM CsCl, 2 mM MgCl2, 8.8 mM CaCl2), 10 mM EGTA, 10 mM HEPES, 10 mM Glucose, 0.1 mM GTP and 2 mM Na2ATP; pH 7.2 with CsOH and 290 mOsm/L. The free internal Ca2+ concentration was buffered to 1 μM.
The automated electrophysiological platform QPatch 16 from Sophion (Denmark) was used to carry out the compounds profiling. The series resistance and quality of seals were continuously monitored during the experiments. Data was analyzed using Sophion QPatch assay software 5.6 (Odense). IC50 values were calculated using a least squares regression algorithm (Hill equation).
To monitor the ion currents, a voltage ramp from −100 mV to +100 mV, over 300 ms, was applied every 10 seconds, from a holding potential of −60 mV.
After recording for a minimum of 60 seconds control period, Rosiglitazone (30 uM), was applied to activate the channel.

[1] = Table 4, HEK293 cells overexpressing TRPC5, rosiglitazone stimulation, 80 mV, read-out: TRPC5_QP_ XC50_80
[2] = Table 4, HEK293 cells overexpressing TRPC5, rosiglitazone stimulation, 100 mV, read-out: TRPC5_QP_ XC50_100
[3] = Table 5, HEK293 cells overexpressing TRPC5, rosiglitazone stimulation, 80 mV, read-out: TRPC5_QP_ XC50_80
[4] = Table 5, HEK293 cells overexpressing TRPC5, rosiglitazone stimulation, 100 mV, read-out: TRPC5_QP_ XC50_100
[5] = Table 3, HEK293 cells overexpressing TRPC5, rosiglitazone stimulation, 80 mV, read-out: TRPC5_QP_ XC50_80
[6] = Table 3, HEK293 cells overexpressing TRPC5, rosiglitazone stimulation, 100 mV, read-out: TRPC5_QP_ XC50_100

`CCCc1c(N2CCN(Cc3ccccc3C)C(=O)C2)cn[nH]c1=O` was tested. Which IC50 [1] did it give?
The IC50 was 10 to 500 µM.

What about the IC50 [2] of the same molecule?
Its IC50 is 10 to 500 µM.

With `O=c1[nH]ncc(N2CCc3c(ncn3Cc3cccc(C(F)(F)F)c3)C2)c1Cl` as the molecule, how does the IC50 read?
Its IC50 is 1 to 5 µM.

Which IC50 [3] does the source give for `O=C1CN(c2cn[nH]c(=O)c2Cl)CCN1C1(c2ccccc2)CC1` here?
Its IC50 is 1 to 5 µM.

What about the IC50 [4] of the same molecule?
Its IC50 is 1 to 5 µM.

Which IC50 [3] does the source give for `O=C1CN(c2cn[nH]c(=O)c2Cl)CCN1Cc1cccnc1Cl` here?
The IC50 was 10 to 500 µM.

And the IC50 [4]?
The IC50 was 10 to 500 µM.

`Cc1cc(F)ccc1CN1CCN(c2c(Cl)c(Br)n[nH]c2=O)CC1` was tested. Which IC50 [3] did it give?
Its IC50 is 10 to 500 µM.

And the IC50 [4]?
Its IC50 is 10 to 500 µM.

How did the IC50 [1] turn out when `Cc1cc(F)ccc1CN1CCN(c2cc(C)c(=O)[nH]n2)CC1` was run?
The IC50 was 5 to 10 µM.

What about the IC50 [2] of the same molecule?
Its IC50 is 5 to 10 µM.

`O=C1CN(c2cn[nH]c(=O)c2Cl)CCN1Cc1ccc(Cl)cn1` was tested. Which IC50 [1] did it give?
The IC50 was 10 to 500 µM.

And the IC50 [2]?
Its IC50 is 10 to 500 µM.

With `Cc1cc(N2CCN(Cc3ccc(F)cc3C)C(=O)C2)c(=O)[nH]n1` as the molecule, how does the IC50 [3] read?
Its IC50 is 10 to 500 µM.

What about the IC50 [4] of the same molecule?
The IC50 was 10 to 500 µM.

How did the IC50 [3] turn out when `Cc1n[nH]c(=O)c(N2CCN(Cc3ccccc3C(F)(F)F)C(=O)C2)c1Cl` was run?
Its IC50 is 5 to 10 µM.

What about the IC50 [4] of the same molecule?
The IC50 was 5 to 10 µM.

`Cc1cc(F)ccc1CN1CCN(c2c(Cl)c(C)n[nH]c2=O)CC1=O` was tested. Which IC50 [1] did it give?
Its IC50 is 10 to 500 µM.

What about the IC50 [2] of the same molecule?
Its IC50 is 10 to 500 µM.

Which IC50 [1] does the source give for `Cc1ccccc1[C@H](C)N1CCN(c2cn[nH]c(=O)c2Cl)CC1=O` [drawing 743] here?
Its IC50 is 1e-05 to 1 µM.

What about the IC50 [2] of the same molecule?
Its IC50 is 1e-05 to 1 µM.

With `O=C1CN(c2cn[nH]c(=O)c2Br)CCN1CC1CCCCC1` as the molecule, how does the IC50 [5] read?
Its IC50 is 1 to 5 µM.

And the IC50 [6]?
Its IC50 is 1 to 5 µM.

How did the IC50 [3] turn out when `Cc1n[nH]c(=O)c(Cl)c1N1CCN(Cc2ccccc2OC(F)(F)F)C(=O)C1` was run?
Its IC50 is 5 to 10 µM.

What about the IC50 [4] of the same molecule?
The IC50 was 5 to 10 µM.

What does the source list for `O=C1CN(c2cn[nH]c(=O)c2Cl)CCN1Cc1ccc(Cl)cc1F`?
IC50 [5]: 5 to 10 µM; IC50 [6]: 5 to 10 µM

What does the source list for `Cc1ccccc1CN1CC2(CCN(c3cn[nH]c(=O)c3Cl)CC2)C1`?
IC50 [3]: 1 to 5 µM; IC50 [4]: 1 to 5 µM

`Cc1ncccc1CN1CCN(c2cn[nH]c(=O)c2Cl)CC1` [drawing 719] was tested. Which IC50 [1] did it give?
Its IC50 is 1e-05 to 1 µM.

What about the IC50 [2] of the same molecule?
The IC50 was 1e-05 to 1 µM.

What does the source list for `CCn1nc(CN2CCN(c3cn[nH]c(=O)c3Cl)CC2)c2ccccc21`?
IC50 [3]: 10 to 500 µM; IC50 [4]: 10 to 500 µM

Which results are given for `O=C1CN(c2c(Cl)cn[nH]c2=O)CCN1Cc1ccccc1OC(F)(F)F`?
IC50 [3]: 10 to 500 µM; IC50 [4]: 10 to 500 µM

For `O=c1[nH]ncc(N2CCN(Cc3ccccc3OC(F)(F)F)CC2)c1Cl`, which IC50 [5] is on record?
The IC50 was 1 to 5 µM.

And the IC50 [6]?
Its IC50 is 1 to 5 µM.

Which results are given for `CN(C)C(=O)CN1CCN(c2cn[nH]c(=O)c2Br)CC1`?
IC50 (HEK293 cells overexpressing TRPC5, rosiglitazone stimulation, 80 mV, read-out: TRPC5_QP XC50_80): 10 to 500 µM; IC50 (HEK293 cells overexpressing TRPC5, rosiglitazone stimulation, 100 mV, read-out: TRPC5_QP XC50_100): 10 to 500 µM

What does the source list for `O=c1[nH]ncc(N2CCN(Cc3ccccc3Cl)CC2)c1Cl` [drawing 676]?
IC50 [5]: 1 to 5 µM; IC50 [6]: 1 to 5 µM

Which results are given for `Cc1ccccc1N1CCN(c2cn[nH]c(=O)c2Cl)CC1`?
IC50 [3]: 1 to 5 µM; IC50 [4]: 1 to 5 µM

What does the source list for `Cc1ccccc1[C@@H](C)N1CCN(c2cn[nH]c(=O)c2Cl)CC1`?
IC50 [1]: 1 to 5 µM; IC50 [2]: 1 to 5 µM

How did the IC50 [1] turn out when `Cc1cc(C(F)(F)F)ccc1CN1CCN(c2cn[nH]c(=O)c2Cl)CC1` was run?
Its IC50 is 10 to 500 µM.

And the IC50 [2]?
The IC50 was 10 to 500 µM.

For `Cc1ccccc1CN1CCN(c2cn[nH]c(=O)c2-c2ccccc2)CC1=O`, which IC50 [5] is on record?
The IC50 was 10 to 500 µM.

And the IC50 [6]?
Its IC50 is 10 to 500 µM.

For `COc1cc(C(F)(F)F)ccc1CN1CCN(c2cn[nH]c(=O)c2Cl)CC1=O`, which IC50 [3] is on record?
Its IC50 is 1 to 5 µM.

And the IC50 [4]?
Its IC50 is 5 to 10 µM.

Which IC50 [3] does the source give for `Cc1cc(F)ccc1CN1CCN(c2cc(=O)[nH]nc2C)CC1=O` here?
Its IC50 is 10 to 500 µM.

What about the IC50 [4] of the same molecule?
Its IC50 is 10 to 500 µM.

Which IC50 [3] does the source give for `Cc1cc(C(F)(F)F)ccc1CN1CCN(c2cn[nH]c(=O)c2Cl)CC1=O` here?
Its IC50 is 1 to 5 µM.

What about the IC50 [4] of the same molecule?
Its IC50 is 10 to 500 µM.

For `Cc1ccccc1CN1CCN(c2cn[nH]c(=O)c2Br)C(C)C1` (centres unmarked) [drawing 650], which IC50 [5] is on record?
Its IC50 is 10 to 500 µM.

What about the IC50 [6] of the same molecule?
Its IC50 is 10 to 500 µM.

Which IC50 [3] does the source give for `Cn1nc(CN2CCN(c3cn[nH]c(=O)c3Cl)CC2)c2ccccc21` here?
The IC50 was 5 to 10 µM.

And the IC50 [4]?
The IC50 was 10 to 500 µM.
